Results: ChEMBL document CHEMBL5131463, “Target-Based Virtual Screening and LC/MS-Guided Isolation Procedure for Identifying Phloroglucinol-Terpenoid Inhibitors of SARS-CoV-2” (J Nat Prod, 2022)

Key:
[1] = test system: SARS-CoV-2; experiment: (§1) Antiviral activity against SARS-Cov-2 infected in african green monkey Vero E6 cells assessed as inhibition of viral replication at 10 uM pretreated with compound for 1 hr followed by viral infection for 2 hrs measured after 24 hrs post infection by qRt-PCR analysis relative to control; type: functional; conditions: Severe acute respiratory syndrome coronavirus 2, Vero C1008, time 27 hrs
[2] = test system: SARS-CoV-2; experiment: as §1, with “post infection in presence of wallichins C by qRt-PCR” for “post infection by qRt-PCR”; type: functional; conditions: Severe acute respiratory syndrome coronavirus 2, Vero C1008, time 27 hrs
[3] = target: T1, Spike glycoprotein (Severe acute respiratory syndrome coronavirus 2, UniProt P0DTC2); experiment: Binding affinity to SARS-CoV-2 Spike glycoprotein receptor-binding domain at 1.875 to 50 uM by SPR assay
[4] = test system: SARS-CoV-2; experiment: Antiviral activity against SARS-Cov-2 infected in african green monkey Vero E6 cells assessed as inhibition of viral replication pretreated with compound for 1 hr followed by viral infection for 2 hrs measured after 24 hrs post infection by qRt-PCR analysis; type: functional, organism-based; conditions: Severe acute respiratory syndrome coronavirus 2, Vero C1008
[5] = Cytotoxicity against African green monkey Vero E6 cells by CCK-8 assay; type: toxicity, cell-based, Vero C1008; conditions: chlorocebus sabaeus
[6] = target: T2, Replicase polyprotein 1ab (Severe acute respiratory syndrome coronavirus 2, UniProt P0DTD1); experiment: Binding affinity to SARS-CoV-2 3CL protease at 1.875 to 50 uM by SPR assay
[7] = Selectivity index, ratio for CC50 of African green monkey Vero E6 cells to EC50 for SARS-Cov-2 infected in african monkey Vero E6 cells; type: toxicity, Vero C1008; conditions: read-out: Selectivity Index
[8] = target: T2, Replicase polyprotein 1ab; experiment: Inhibition of SARS-CoV-2 3CL protease using MCA-AVLQSGFR-Lys(Dnp)-Lys-NH2 as flurogenic substrate pre-incubated with compound for 10 mins followed by substrate addition measured after 10 mins by FRET assay
[9] = test system: SARS-CoV-2; experiment: Antiviral activity against SARS-Cov-2 infected in african green monkey Vero E6 cells assessed as inhibition of viral replication pretreated with compound for 1 hr followed by viral infection for 2 hrs measured after 24 hrs post infection in presence of wallichins C by qRt-PCR analysis; type: functional, organism-based; conditions: Severe acute respiratory syndrome coronavirus 2, Vero C1008
[10] = Cytotoxicity against African green monkey Vero E6 cells in presence of wallichins C by CCK-8 assay; type: toxicity, cell-based, Vero C1008; conditions: chlorocebus sabaeus
[11] = Cytotoxicity against human Calu-3 cells in presence of wallichins C by CCK-8 assay; type: toxicity, cell-based
[12] = test system: SARS-CoV-2; experiment: Antiviral activity against SARS-Cov-2 infected in human Calu-3 cells assessed as inhibition of viral replication pretreated with compound for 1 hr followed by viral infection for 2 hrs measured after 24 hrs post infection in presence of wallichins C by qRt-PCR analysis; type: functional, organism-based; conditions: Severe acute respiratory syndrome coronavirus 2, Calu-3
[13] = target: T2, Replicase polyprotein 1ab; experiment: Binding affinity to SARS-CoV-2 3CL protease at 1.875 to 50 uM in presence of wallichins C by SPR assay
[14] = test system: SARS-CoV-2; experiment: Antiviral activity against SARS CoV-2 VSV-delG pseudotype infected in african green monkey Vero E6 at 100 uM measured after 15 hrs post infection relative to control; type: functional; conditions: Severe acute respiratory syndrome coronavirus 2, Vero C1008
[15] = target: T2, Replicase polyprotein 1ab; experiment: Inhibition of SARS-CoV-2 3CL protease using MCA-AVLQSGFR-Lys(Dnp)-Lys-NH2 as flurogenic substrate pre-incubated with compound for 10 mins followed by substrate addition measured after 10 mins in presence of wallichins C by FRET assay
[16] = test system: SARS-CoV-2; experiment: Antiviral activity against SARS-Cov-2 infected in human Calu-3 cells assessed as inhibition of viral replication pretreated with compound for 1 hr followed by viral infection for 2 hrs measured after 24 hrs post infection by qRt-PCR analysis; type: functional, organism-based; conditions: Severe acute respiratory syndrome coronavirus 2, Calu-3
[17] = Selectivity index, ratio of CC50 for African green monkey Vero cells in presence of […] to EC50 for SARS-Cov-2 infected in african green monkey Vero E6 cells assessed as inhibition of viral replication in presence of wallichins C; type: toxicity, Vero C1008; conditions: read-out: Selectivity Index
[18] = Cytotoxicity against human Calu-3 cells by CCK-8 assay; type: toxicity, cell-based
[19] = target: T1, Spike glycoprotein; experiment: Binding affinity to SARS-CoV-2 Spike glycoprotein receptor-binding domain at 1.875 to 50 uM in presence of wallichins C by SPR assay
[20] = target: T1, Spike glycoprotein; experiment: Binding affinity to SARS-CoV-2 Spike glycoprotein receptor-binding domain at 1.875 to 50 uM in presence of wallichins D by SPR assay
[21] = test system: SARS-CoV-2; experiment: as §1, with “post infection in presence of wallichins D by qRt-PCR” for “post infection by qRt-PCR”; type: functional; conditions: Severe acute respiratory syndrome coronavirus 2, Vero C1008, time 27 hrs
[22] = target: T2, Replicase polyprotein 1ab; experiment: Inhibition of SARS-CoV-2 3CL protease using MCA-AVLQSGFR-Lys(Dnp)-Lys-NH2 as flurogenic substrate pre-incubated with compound for 10 mins followed by substrate addition measured after 10 mins in presence of wallichins D by FRET assay
[23] = Cytotoxicity against African green monkey Vero E6 cells in presence of wallichins D by CCK-8 assay; type: toxicity, cell-based, Vero C1008; conditions: chlorocebus sabaeus
[24] = Selectivity index, ratio of CC50 for African green monkey Vero cells in presence of wallichins D to EC50 for SARS-Cov-2 infected in african green monkey Vero E6 cells assessed as inhibition of viral replication in presence of wallichins D; type: toxicity, Vero C1008; conditions: read-out: Selectivity Index
[25] = test system: SARS-CoV-2; experiment: Antiviral activity against SARS-Cov-2 infected in human Calu-3 cells assessed as inhibition of viral replication pretreated with compound for 1 hr followed by viral infection for 2 hrs measured after 24 hrs post infection in presence of wallichins D by qRt-PCR analysis; type: functional, organism-based; conditions: Severe acute respiratory syndrome coronavirus 2, Calu-3
[26] = Cytotoxicity against human Calu-3 cells in presence of wallichins D by CCK-8 assay; type: toxicity, cell-based
[27] = test system: SARS-CoV-2; experiment: Antiviral activity against SARS-Cov-2 infected in african green monkey Vero E6 cells assessed as inhibition of viral replication pretreated with compound for 1 hr followed by viral infection for 2 hrs measured after 24 hrs post infection in presence of wallichins D by qRt-PCR analysis; type: functional, organism-based; conditions: Severe acute respiratory syndrome coronavirus 2, Vero C1008
[28] = target: T2, Replicase polyprotein 1ab; experiment: Binding affinity to SARS-CoV-2 3CL protease at 1.875 to 50 uM in presence of wallichins D by SPR assay

SMILES: C=C1CC[C@H]2[C@@](C)(CCC[C@]2(C)C(=O)O)[C@@H]1C/C=C(\C)[C@H]1CCC2=C(O1)C(C)(C)C(O)=C(C(C)=O)C2=O
- inhibition at 10 µM [1]: 51.7%

SMILES: C=C1CC[C@H]2[C@@](C)(CCC[C@]2(C)C(=O)O)[C@@H]1C/C=C(\C)[C@H]1CCc2c(O)c(CC3C(=O)C(C(C)=O)=C(O)C(C)(C)C3O)c(O)c(C(=O)CCC)c2O1 (some centres not stated)
- inhibition at 10 µM [2]: 87.7%
- Kd [3]: 67.9 µM
- EC50 [4]: 12.1 µM
- CC50 [5]: > 140 µM
- Kd [6]: 14.3 µM
- selectivity ratio [7]: > 11
- IC50 [8]: 8.1 µM
- EC50 [9]: 6.8 µM
- CC50 [10]: > 140 µM
- CC50 [11]: 72.4 µM
- EC50 [12]: 24.8 µM
- Kd [13]: 12 µM
- inhibition in vivo at 100 µM [14]: < 50%
- IC50 [15]: 5.6 µM
- EC50 [16]: 30 µM
- selectivity ratio [17]: > 27
- CC50 [18]: 64.3 µM
- Kd [19]: 64.7 µM

SMILES: C=C1CC[C@H]2[C@@](C)(CCC[C@]2(C)C(=O)O)[C@@H]1C/C=C(\C)[C@@H]1CCc2c(O)c(CC3C(=O)C(C(C)=O)=C(O)C(C)(C)C3O)c(O)c(C(=O)CCC)c2O1 (some centres not stated)
- Kd [20]: 64.7 µM
- Kd [3]: 91.7 µM
- EC50 [4]: 4.5 µM
- inhibition at 10 µM [21]: 87.7%
- CC50 [5]: > 140 µM
- IC50 [22]: 5.6 µM
- Kd [6]: 16.6 µM
- selectivity ratio [7]: > 35
- IC50 [8]: 7.5 µM
- CC50 [23]: > 140 µM
- selectivity ratio [24]: > 27
- EC50 [25]: 24.8 µM
- CC50 [26]: 72.4 µM
- EC50 [27]: 6.8 µM
- Kd [28]: 12 µM
- inhibition in vivo at 100 µM [14]: < 50%
- EC50 [16]: 20.2 µM
- CC50 [18]: 98.6 µM
